In patent publication US20240270715A1, “INHIBITORS OF TRANSGLUTAMINASES” (ZEDIRA GMBH, priority 2021, published 2024) one finds Papp, logD and IC50 data, which are given here for 17 compounds.

Series [1] in a line: Caco-2 permeability assay (CacoReady kit). Format: in vitro ADME. The settings on record: human. In short, it runs like this: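 Read-out is the permeability coefficient Papp, obtained from transport across a Caco-2 barrier prepared from a ready-to-use kit following the manufacturer's instructions.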
(Caco-2 cells form a polarised layer with tight junctions and transporters.)

Series [2] is described as follows: Log D by shake flask method (octanol / PBS pH 7.4, HPLC). Format: physicochemical. To be noted: octanol / PBS pH 7.4, shake flask; read-out: logD. The procedure, abridged:
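Shake-flask partitioning of compound between octanol and PBS at pH 7.4, with phase concentrations quantified by HPLC. The value reported is Log D.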

The target in series [3] is T1, recombinant human transglutaminase 2 (Homo sapiens, UniProt P21980).
T1 sequence (P21980 1-687): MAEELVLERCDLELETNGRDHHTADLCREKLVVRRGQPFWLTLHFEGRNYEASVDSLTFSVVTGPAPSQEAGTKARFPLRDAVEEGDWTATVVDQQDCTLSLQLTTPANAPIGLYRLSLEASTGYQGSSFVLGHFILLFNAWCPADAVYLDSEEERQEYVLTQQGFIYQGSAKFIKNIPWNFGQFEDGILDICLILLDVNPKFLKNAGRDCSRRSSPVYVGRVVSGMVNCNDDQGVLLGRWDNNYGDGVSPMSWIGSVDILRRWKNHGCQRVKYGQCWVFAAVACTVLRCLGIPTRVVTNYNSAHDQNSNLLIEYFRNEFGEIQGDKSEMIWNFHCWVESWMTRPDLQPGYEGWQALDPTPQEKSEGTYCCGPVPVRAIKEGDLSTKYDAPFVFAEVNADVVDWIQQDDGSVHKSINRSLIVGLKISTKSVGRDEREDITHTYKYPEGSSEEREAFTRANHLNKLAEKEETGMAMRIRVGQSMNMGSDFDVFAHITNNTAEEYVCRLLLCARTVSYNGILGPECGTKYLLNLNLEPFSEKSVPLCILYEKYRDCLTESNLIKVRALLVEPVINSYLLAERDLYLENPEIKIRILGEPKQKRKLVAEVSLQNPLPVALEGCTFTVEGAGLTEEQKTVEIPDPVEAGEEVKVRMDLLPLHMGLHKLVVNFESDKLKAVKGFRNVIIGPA
As to the kind of experiment: Transglutaminase assay: incorporation of dansylcadaverine into dimethylcasein (DCC-assay). The settings on record: recombinant human TG2 10 nM, dansylcadaverine/dimethylcasein; read-out: IC50 TG2. Format: biochemical. In short, it runs like this:
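Recombinant human TG2 (10 nM final) incorporates dansylcadaverine (16.7 μM) into N,N-dimethylcasein (4 μM) in Tris-HCl buffer, pH 8.0, with 10 mM CaCl2 and 10 mM glutathione. Fluorescence (λex 330, λem 500 nm) followed 30 min. The slope between 20–30 min gives activity versus DMSO control, and IC50 comes from the concentration–activity plot.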

`CCNC(=O)C(=O)CC[C@H](NC(=O)c1cc(Cl)sc1Cl)C(=O)Nc1cccn(CC(=O)NC2C3CC4CC(C3)CC2C4)c1=O` (stereo partly drawn) [Compound I-46, (S)-2-(2,5-dichlorothiophene-3-carboxamido)-N6-ethyl-N1-(1-(2-(2-adamantylamino)-2-oxoethyl)-2-oxo-1,2-dihydropyridin-3-yl)-5-oxohexanediamide]: the Papp (as a rule, the rate of passage across a membrane or cell layer, normalised by area and donor concentration) in series [1] was 1 to 10 ×10⁻⁶ cm/s. For the same compound, the logD – broadly, lipophilicity at a set pH, counting ionised and neutral species – in series [2] fell in the range of 3 to 5. For the same compound, the IC50 (as a rule, the concentration that inhibits the measured activity by half) in series [3] is below 150 nM.
The corresponding values for `CCNC(=O)C(=O)CC[C@H](NC(=O)c1cc(Br)sc1Br)C(=O)Nc1cccn(CC(=O)NC2C3CC4CC(C3)CC2C4)c1=O` (stereo partly drawn) [Compound I-47, (S)-2-(2,5-dibromothiophene-3-carboxamido)-N6-ethyl-N1-(1-(2-(2-adamantylamino)-2-oxoethyl)-2-oxo-1,2-dihydropyridin-3-yl)-5-oxohexanediamide] are 1 to 10 ×10⁻⁶ cm/s, 3 to 5 and below 150 nM.
In turn, `CCNC(=O)C(=O)CC[C@H](NC(=O)c1nc(Cl)sc1Cl)C(=O)Nc1cccn(CC(=O)NC2C3CC4CC(C3)CC2C4)c1=O` (stereo partly drawn) [Compound I-48, (S)-2-(2,5-dichlorothiazole-4-carboxamido)-N6-ethyl-N1-(1-(2-(2-adamantylamino)-2-oxoethyl)-2-oxo-1,2-dihydropyridin-3-yl)-5-oxohexanediamide] returned a Papp in series [1] of 1 to 10 ×10⁻⁶ cm/s. Also, in series [2], the logD lay within 1 to 3. Moreover, the IC50 in series [3] is 150 to 600 nM.
The corresponding values for `CCNC(=O)C(=O)CC[C@H](NC(=O)c1cc(C)oc1C)C(=O)Nc1cccn(CC(=O)NC2C3CC4CC(C3)CC2C4)c1=O` (stereo partly drawn) [Compound I-49, (S)-2-(2,5-dimethylfuran-3-carboxamido)-N6-ethyl-N1-(1-(2-(2-adamantylamino)-2-oxoethyl)-2-oxo-1,2-dihydropyridin-3-yl)-5-oxohexanediamide] are 1 to 10 ×10⁻⁶ cm/s, 1 to 3 and below 150 nM.
For the compound `CCNC(=O)C(=O)CC[C@H](NC(=O)c1nc(Br)cs1)C(=O)Nc1cccn(CC(=O)NC2C3CC4CC(C3)CC2C4)c1=O` (stereo partly drawn) [Compound I-50, (S)-2-(4-bromothiazole-2-carboxamido)-N6-ethyl-N1-(1-(2-(2-adamantylamino)-2-oxoethyl)-2-oxo-1,2-dihydropyridin-3-yl)-5-oxohexanediamide], the Papp in series [1] was in the range of 1 to 10 ×10⁻⁶ cm/s. Besides, the logD in series [2] lay in the range of 3 to 5. For the same compound, the IC50 in series [3] was below 150 nM.
The corresponding values for `CCNC(=O)C(=O)CC[C@H](NC(=O)c1cc(Br)cs1)C(=O)Nc1cccn(CC(=O)NC2C3CC4CC(C3)CC2C4)c1=O` (stereo partly drawn) [Compound I-51, (S)-2-(4-bromothiophene-2-carboxamido)-N6-ethyl-N1-(1-(2-(2-adamantylamino)-2-oxoethyl)-2-oxo-1,2-dihydropyridin-3-yl)-5-oxohexanediamide] are 1 to 10 ×10⁻⁶ cm/s, 3 to 5 and below 150 nM.
In the case of `CCNC(=O)C(=O)CC[C@H](NC(=O)c1cc(Br)c(Cl)s1)C(=O)Nc1cccn(CC(=O)NC2C3CC4CC(C3)CC2C4)c1=O` (stereo partly drawn) [Compound I-52, (S)-2-(4-bromo-5-chlorothiophene-2-carboxamido)-N6-ethyl-N1-(1-(2-(2-adamantylamino)-2-oxoethyl)-2-oxo-1,2-dihydropyridin-3-yl)-5-oxohexanediamide], in series [1], the Papp is 1 to 10 ×10⁻⁶ cm/s. Besides, the logD in series [2] lay within 3 to 5. Moreover, the half-inhibitory concentration (IC50) in series [3] is below 150 nM.
The corresponding values for `CCNC(=O)C(=O)CC[C@H](NC(=O)c1cc(Br)c(Br)s1)C(=O)Nc1cccn(CC(=O)NC2C3CC4CC(C3)CC2C4)c1=O` (stereo partly drawn) [Compound I-53, (S)-2-(4,5-dibromothiophene-2-carboxamido)-N6-ethyl-N1-(1-(2-(2-adamantylamino)-2-oxoethyl)-2-oxo-1,2-dihydropyridin-3-yl)-5-oxohexanediamide] are 1 to 10 ×10⁻⁶ cm/s, 3 to 5 and below 150 nM.
In series [1], `CCNC(=O)C(=O)CC[C@H](NC(=O)c1cc(Cl)c(Cl)s1)C(=O)Nc1cccn(CC(=O)NC2C3CC4CC(C3)CC2C4)c1=O` (stereo partly drawn) [Compound I-54, (S)-2-(4,5-dichlorothiophene-2-carboxamido)-N6-ethyl-N1-(1-(2-(2-adamantylamino)-2-oxoethyl)-2-oxo-1,2-dihydropyridin-3-yl)-5-oxohexanediamide] showed a Papp of 1 to 10 ×10⁻⁶ cm/s. The logD in series [2] lay within 3 to 5. In addition, the IC50 in series [3] is below 150 nM.
Regarding `CCNC(=O)C(=O)CC[C@H](NC(=O)[C@@H]1CCCN1C(C)=O)C(=O)Nc1cccn(CC(=O)NC2C3CC4CC(C3)CC2C4)c1=O` (stereo partly drawn) [Compound I-55, (S)-2-((S)-1-acetylpyrrolidine-2-carboxamido)-N6-ethyl-N1-(1-(2-(2-adamantylamino)-2-oxoethyl)-2-oxo-1,2-dihydropyridin-3-yl)-5-oxohexanediamide], the Papp in series [1] is below 1 ×10⁻⁶ cm/s. Also, the pH-dependent lipophilicity (logD) in series [2] fell in the range of 1 to 3. For the same compound, in series [3], the IC50 is 150 to 600 nM.
The corresponding values for `CCNC(=O)C(=O)CC[C@H](NC(=O)c1cnnn1C)C(=O)Nc1cccn(CC(=O)NC2C3CC4CC(C3)CC2C4)c1=O` (stereo partly drawn) [Compound I-56, (S)-N1-ethyl-N6-(1-(2-(2-adamantylamino)-2-oxoethyl)-2-oxo-1,2-dihydropyridin-3-yl)-5-(1-methyl-1H-1,2,3-triazole-5-carboxamido)-2-oxohexanediamide] are 1 to 10 ×10⁻⁶ cm/s, below 1 and below 150 nM.
Consider `CCNC(=O)C(=O)CC[C@H](NC(=O)c1nn[nH]n1)C(=O)Nc1cccn(CC(=O)NC2C3CC4CC(C3)CC2C4)c1=O` (stereo partly drawn) [Compound I-57, (S)-N1-ethyl-N6-(1-(2-(2-adamantylamino)-2-oxoethyl)-2-oxo-1,2-dihydropyridin-3-yl)-2-oxo-5-(2H-tetrazole-5-carboxamido)hexanediamide], for which the Papp in series [1] is below 1 ×10⁻⁶ cm/s. In addition, in series [2], the logD is below 1. Moreover, the IC50 in series [3] was 600 to 3500 nM.
For the compound `CCNC(=O)C(=O)CC[C@H](NC(=O)c1cnccn1)C(=O)Nc1cccn(CC(=O)NC2C3CC4CC2CC(O)(C4)C3)c1=O` (stereo partly drawn) [Compound I-58, (S)-N1-ethyl-N6-(1-(2-(5-hydroxyadamantane-2-amino)-2-oxoethyl)-2-oxo-1,2-dihydropyridin-3-yl)-2-oxo-5-(pyrazine-2-carboxamido)hexanediamide], the Papp in series [1] was below 1 ×10⁻⁶ cm/s. In series [2], the logD was below 1. The IC50 in series [3] lay within 150 to 600 nM.
Take `CCNC(=O)C(=O)CC[C@H](NC(=O)[C@H]1CCNC1)C(=O)Nc1cccn(CC(=O)NC2C3CC4CC2CC(F)(C4)C3)c1=O` (stereo partly drawn) [Compound I-59, (S)-N1-ethyl-N6-(1-(2-(5-fluoroadamantane-2-amino)-2-oxoethyl)-2-oxo-1,2-dihydropyridin-3-yl)-2-oxo-5-((S)-pyrrolidine-3-carboxamido)hexanediamide]: the Papp in series [1] is below 1 ×10⁻⁶ cm/s. Moreover, in series [2], the logD is below 1. Moreover, the IC50 in series [3] was in the range of 150 to 600 nM.
In turn, `CCNC(=O)C(=O)CC[C@H](NC(=O)[C@@H]1CCCCN1)C(=O)Nc1cccn(CC(=O)NC2C3CC4CC2CC(Cl)(C4)C3)c1=O` (stereo partly drawn) [Compound I-60, (S)-N1-ethyl-N6-(1-(2-(5-chloroadamantane-2-amino)-2-oxoethyl)-2-oxo-1,2-dihydropyridin-3-yl)-2-oxo-5-((S)-piperidine-2-carboxamido)hexanediamide] registered a Papp in series [1] below 1 ×10⁻⁶ cm/s. Also, in series [2], the logD was 1 to 3. The half-maximal inhibitory concentration (IC50) in series [3] was 150 to 600 nM.
In turn, `CCNC(=O)C(=O)CC[C@H](NC(=O)[C@@H]1CCCNC1)C(=O)Nc1cccn(CC(=O)NC2C3CC4CC2CC(Br)(C4)C3)c1=O` (stereo partly drawn) [Compound I-61, (S)-N1-ethyl-N6-(1-(2-(5-bromoadamantane-2-amino)-2-oxoethyl)-2-oxo-1,2-dihydropyridin-3-yl)-2-oxo-5-((R)-piperidine-3-carboxamido)hexanediamide] returned a Papp in series [1] below 1 ×10⁻⁶ cm/s. Moreover, the logD in series [2] lay within 1 to 3. Besides, the IC50 in series [3] was in the range of 150 to 600 nM.
In series [1], `CCNC(=O)C(=O)CC[C@H](NC(=O)[C@H]1COCCN1)C(=O)Nc1cccn(CC(=O)NC2C3CC4CC2CC(C)(C4)C3)c1=O` (stereo partly drawn) [Compound I-62, (S)-N1-ethyl-N6-(1-(2-(5-methyladamantane-2-amino)-2-oxoethyl)-2-oxo-1,2-dihydropyridin-3-yl)-5-((R)-morpholine-3-carboxamido)-2-oxohexanediamide] returned a Papp below 1 ×10⁻⁶ cm/s. Also, the logD in series [2] was in the range of 1 to 3. Further, in series [3], the IC50 fell in the range of 150 to 600 nM.
